Test results as given in patent publication US10058495B2, “Method of making a skin care product” (The Procter & Gamble Company, priority 2014, dated 2018).
Residues, ends and D or L forms follow the SMILES beside them. *: point of attachment. Palmitoyl = CCCCCCCCCCCCCCCC(=O)*

Assay: In vivo skin penetration study #1 (Tape Stripping method), magnetic array vs finger
Parameters: species or system human
Settings: for combined amount of Pal-KTTKS on tape strips, Mean: mean of the three strip groups; for combined amount of Pal-KTTKS on tape strips, Mean / combined amount of Pal-KTTKS on tape strips: in ng; for delivery of Pal-KTTKS, active compared to passive application: three test subjects
Method: An in vivo skin penetration study was conducted to establish the effect of using a skin care product of the present invention by applying a skin care composition comprising Pal-KTTKS (SEQ ID NO: 1) with an applicator comprising a magnetic array. The study compared the penetration of the Pal-KTTKS (SEQ ID NO: 1) in combination with a variety of magnetic arrays (active application) to the penetration of Pal-KTTKS (SEQ ID NO: 1) applied with a finger (passive application). Penetration of Pal-KTTKS (SEQ ID NO: 1) in this example is determined according to the Tape Stripping method. In this example, the level of Pal-KTTKS (SEQ ID NO: 1) present in the extract from each tape strip was measured using HPLC and the results normalized to the protein level measured on the tape strip.
This method provides a suitable means of measuring the amount of skin care active present in skin, and comparing active versus passive application of the skin care active. Two identical rectangular areas of 15 cm^2 are marked on the volar forearms of volunteers. A measured dose (approximately 30 mg) of the Pal-KTTKS (SEQ ID NO: 1) formulation is applied to the delineated areas using a screw actuated syringe. Active application is carried out on one of the delineated areas using the three-quarter profile of a purpose made applicator (e.g., an applicator presenting one of the magnetic arrays set forth in Table 2). Passive application is accomplished on the other delineated area using the tip of a finger in a sweeping motion identical to that of the active application. The formulation is spread evenly across the entire delineated region using a sweeping motion with a fixed speed of approximately 23 cm/s to […]. The application period is 30 seconds during which time visual inspection is used to ensure even distribution and absorption of the formulation by skin. The application area is then left uncovered for a further 30 minutes to ensure complete absorption. Tape strip samples may be collected and/or analyzed immediately after the complete absorption is ensured or after a waiting period (e.g., after multiple applications of the formulation over multiple hours or days).
The tape stripping procedure is carried out using 10 commercial pre-cut 22.1 mm tape stripping adhesive discs (e.g., D-SQUAME, available from Cuderm Corporation or equivalent) with an adhesive area of 3.8 cm^2. The 10 tape strips are applied sequentially to the same sampling site, which ideally enables each tape strip to obtain a sample from deeper within the stratum corneum than the tape strip that preceded it. A 22.1 mm diameter circular region is marked at the center of the application area. A tape stripping adhesive disc is placed over the marked area and even pressure applied using, for example, a neoprene roller, rolled ten times over the adhesive disc. The adhesive disc is removed from the skin surface in a single pulling motion using manual tweezers. To ensure even removal of the skin sample, subsequent discs are removed in a “north, south, east and west” orientation, which is within the skill of the ordinary artisan. Each adhesive disc is non-destructively analysed for protein content using a suitable instrument (e.g., SquameScan™ 850 instrument commercially available from Heiland Electronics Wetzlar, Germany, or equivalent). The adhesive disc is then immediately placed into a glass vial containing extraction solvent in preparation for subsequent analysis. Solvent extractions are conducted on each tape strip using conventional extraction methods, which are well known to those of ordinary skill in the art, and measuring the amount of Pal-KTTKS (SEQ ID NO: 1) present in the extract, for example, by high performance liquid chromatography (“HPLC”) and/or mass spectrometry.
The procedure is repeated for the remaining nine strips. An additional strip is obtained from outside the area of application of the skin care formulation to serve as a blank sample. […]

## CCCCCCCCCCCCCCCC(=O)N[C@@H](CCCCN)C(=O)N[C@H](C(=O)N[C@H](C(=O)N[C@@H](CCCCN)C(=O)N[C@@H](CO)C(=O)O)[C@@H](C)O)[C@@H](C)O [Pal-KTTKS, palmitoyl-lysine-threonine-threonine-lysine-serine] (Palmitoyl-KTTKS-OH; C-terminus assumed)
Array 4, active, Average
  combined amount of Pal-KTTKS on tape strips, Mean: 102.11
Array 4, active, subject 1, 1st test
  combined amount of Pal-KTTKS on tape strips, Mean: 144.79
Array 4, active, subject 1, 2nd test
  combined amount of Pal-KTTKS on tape strips, Mean: 96.97
Array 4, active, subject 2, 1st test
  combined amount of Pal-KTTKS on tape strips, Mean: 122.02
Array 4, active, subject 2, 2nd test
  combined amount of Pal-KTTKS on tape strips, Mean: 78.21
Array 4, active, subject 3 (2nd test of Table 7)
  combined amount of Pal-KTTKS on tape strips, Mean: 68.57
Array 4, active, strips 2-4, Average
  combined amount of Pal-KTTKS on tape strips: 108.81
Array 4, active, strips 2-4, subject 1, 1st test
  combined amount of Pal-KTTKS on tape strips: 158.48
Array 4, active, strips 2-4, subject 1, 2nd test
  combined amount of Pal-KTTKS on tape strips: 82.45
Array 4, active, strips 2-4, subject 2, 1st test
  combined amount of Pal-KTTKS on tape strips: 129.33
Array 4, active, strips 2-4, subject 2, 2nd test
  combined amount of Pal-KTTKS on tape strips: 94.10
Array 4, active, strips 2-4, subject 3 (2nd test of Table 7)
  combined amount of Pal-KTTKS on tape strips: 79.66
Array 4, active, strips 5-7, Average
  combined amount of Pal-KTTKS on tape strips: 107.95
Array 4, active, strips 5-7, subject 1, 1st test
  combined amount of Pal-KTTKS on tape strips: 154.85
Array 4, active, strips 5-7, subject 1, 2nd test
  combined amount of Pal-KTTKS on tape strips: 117.42
Array 4, active, strips 5-7, subject 2, 1st test
  combined amount of Pal-KTTKS on tape strips: 121.51
Array 4, active, strips 5-7, subject 2, 2nd test
  combined amount of Pal-KTTKS on tape strips: 73.41
Array 4, active, strips 5-7, subject 3 (2nd test of Table 7)
  combined amount of Pal-KTTKS on tape strips: 72.59
Array 4, active, strips 8-10, Average
  combined amount of Pal-KTTKS on tape strips: 89.57
Array 4, active, strips 8-10, subject 1, 1st test
  combined amount of Pal-KTTKS on tape strips: 121.04
Array 4, active, strips 8-10, subject 1, 2nd test
  combined amount of Pal-KTTKS on tape strips: 91.03
Array 4, active, strips 8-10, subject 2, 1st test
  combined amount of Pal-KTTKS on tape strips: 115.22
Array 4, active, strips 8-10, subject 2, 2nd test
  combined amount of Pal-KTTKS on tape strips: 67.12
Array 4, active, strips 8-10, subject 3 (2nd test of Table 7)
  combined amount of Pal-KTTKS on tape strips: 53.45
Array 9, active, average of subjects
  combined amount of Pal-KTTKS on tape strips, Mean: 165.57
Array 9, active, subject 1
  combined amount of Pal-KTTKS on tape strips, Mean: 154.29
Array 9, active, subject 2
  combined amount of Pal-KTTKS on tape strips, Mean: 201.48
Array 9, active, subject 3
  combined amount of Pal-KTTKS on tape strips, Mean: 140.93
Array 9, active, strips 2-4, average of subjects
  combined amount of Pal-KTTKS on tape strips: 263.02
Array 9, active, strips 2-4, subject 1
  combined amount of Pal-KTTKS on tape strips: 177.13
Array 9, active, strips 2-4, subject 2
  combined amount of Pal-KTTKS on tape strips: 440.14
Array 9, active, strips 2-4, subject 3
  combined amount of Pal-KTTKS on tape strips: 171.79
Array 9, active, strips 5-7, average of subjects
  combined amount of Pal-KTTKS on tape strips: 120.01
Array 9, active, strips 5-7, subject 1
  combined amount of Pal-KTTKS on tape strips: 131.72
Array 9, active, strips 5-7, subject 2
  combined amount of Pal-KTTKS on tape strips: 100.02
Array 9, active, strips 5-7, subject 3
  combined amount of Pal-KTTKS on tape strips: 128.29
Array 9, active, strips 8-10, average of subjects
  combined amount of Pal-KTTKS on tape strips: 113.67
Array 9, active, strips 8-10, subject 1
  combined amount of Pal-KTTKS on tape strips: 154.03
Array 9, active, strips 8-10, subject 2
  combined amount of Pal-KTTKS on tape strips: 64.27
Array 9, active, strips 8-10, subject 3
  combined amount of Pal-KTTKS on tape strips: 122.70
bi-directional magnetic array #9
  delivery of Pal-KTTKS, active compared to passive application: significant enhanced delivery
passive, comparator of array 4, Average
  combined amount of Pal-KTTKS on tape strips, Mean: 50.00
passive, comparator of array 4, subject 1, 1st test
  combined amount of Pal-KTTKS on tape strips, Mean: 59.18
passive, comparator of array 4, subject 1, 2nd test
  combined amount of Pal-KTTKS on tape strips, Mean: 42.29
passive, comparator of array 4, subject 2, 1st test
  combined amount of Pal-KTTKS on tape strips, Mean: 52.85
passive, comparator of array 4, subject 2, 2nd test
  combined amount of Pal-KTTKS on tape strips, Mean: 23.30
passive, comparator of array 4, subject 3 (2nd test of Table 8)
  combined amount of Pal-KTTKS on tape strips, Mean: 72.39
passive, comparator of array 4, strips 2-4, Average
  combined amount of Pal-KTTKS on tape strips: 70.42
passive, comparator of array 4, strips 2-4, subject 1, 1st test
  combined amount of Pal-KTTKS on tape strips: 79.94
passive, comparator of array 4, strips 2-4, subject 1, 2nd test
  combined amount of Pal-KTTKS on tape strips: 69.89
passive, comparator of array 4, strips 2-4, subject 2, 1st test
  combined amount of Pal-KTTKS on tape strips: 86.09
passive, comparator of array 4, strips 2-4, subject 2, 2nd test
  combined amount of Pal-KTTKS on tape strips: 28.02
passive, comparator of array 4, strips 2-4, subject 3 (2nd test of Table 8)
  combined amount of Pal-KTTKS on tape strips: 88.18
passive, comparator of array 4, strips 5-7, Average
  combined amount of Pal-KTTKS on tape strips: 49.50
passive, comparator of array 4, strips 5-7, subject 1, 1st test
  combined amount of Pal-KTTKS on tape strips: 65.58
passive, comparator of array 4, strips 5-7, subject 1, 2nd test
  combined amount of Pal-KTTKS on tape strips: 35.35
passive, comparator of array 4, strips 5-7, subject 2, 1st test
  combined amount of Pal-KTTKS on tape strips: 46.95
passive, comparator of array 4, strips 5-7, subject 2, 2nd test
  combined amount of Pal-KTTKS on tape strips: 23.11
passive, comparator of array 4, strips 5-7, subject 3 (2nd test of Table 8)
  combined amount of Pal-KTTKS on tape strips: 76.52
passive, comparator of array 4, strips 8-10, Average
  combined amount of Pal-KTTKS on tape strips: 30.08
passive, comparator of array 4, strips 8-10, subject 1, 1st test
  combined amount of Pal-KTTKS on tape strips: 32.01
passive, comparator of array 4, strips 8-10, subject 1, 2nd test
  combined amount of Pal-KTTKS on tape strips: 21.64
passive, comparator of array 4, strips 8-10, subject 2, 1st test
  combined amount of Pal-KTTKS on tape strips: 25.51
passive, comparator of array 4, strips 8-10, subject 2, 2nd test
  combined amount of Pal-KTTKS on tape strips: 18.76
passive, comparator of array 4, strips 8-10, subject 3 (2nd test of Table 8)
  combined amount of Pal-KTTKS on tape strips: 52.45
passive, comparator of array 9, average of subjects
  combined amount of Pal-KTTKS on tape strips, Mean: 47.80
passive, comparator of array 9, subject 1
  combined amount of Pal-KTTKS on tape strips, Mean: 42.29
passive, comparator of array 9, subject 2
  combined amount of Pal-KTTKS on tape strips, Mean: 28.71
passive, comparator of array 9, subject 3
  combined amount of Pal-KTTKS on tape strips, Mean: 72.39
passive, comparator of array 9, strips 2-4, average of subjects
  combined amount of Pal-KTTKS on tape strips: 62.79
passive, comparator of array 9, strips 2-4, subject 1
  combined amount of Pal-KTTKS on tape strips: 69.89
passive, comparator of array 9, strips 2-4, subject 2
  combined amount of Pal-KTTKS on tape strips: 30.29
passive, comparator of array 9, strips 2-4, subject 3
  combined amount of Pal-KTTKS on tape strips: 88.18
passive, comparator of array 9, strips 5-7, average of subjects
  combined amount of Pal-KTTKS on tape strips: 50.50
passive, comparator of array 9, strips 5-7, subject 1
  combined amount of Pal-KTTKS on tape strips: 35.35
passive, comparator of array 9, strips 5-7, subject 2
  combined amount of Pal-KTTKS on tape strips: 39.62
passive, comparator of array 9, strips 5-7, subject 3
  combined amount of Pal-KTTKS on tape strips: 76.52
passive, comparator of array 9, strips 8-10, average of subjects
  combined amount of Pal-KTTKS on tape strips: 30.11
passive, comparator of array 9, strips 8-10, subject 1
  combined amount of Pal-KTTKS on tape strips: 21.64
passive, comparator of array 9, strips 8-10, subject 2
  combined amount of Pal-KTTKS on tape strips: 16.23
passive, comparator of array 9, strips 8-10, subject 3
  combined amount of Pal-KTTKS on tape strips: 52.45
uni-directional magnetic array #4
  delivery of Pal-KTTKS, active compared to passive application: significant enhanced delivery
